# Measurements taken from publication PMC6985722 (Antimicrobial Agents and Chemotherapy, 2020).
# Several values for one entry are separate records, joined by “and”; a condition that tells them apart may be missing. Equal entries are not always repeated. Where two headings read alike, the source gives them in different places.
# How the values were obtained:
# RSV-A Memphis-37b = assay: RSV human challenge study: viral load in nasal wash by RT-qPCR; assay type: in vivo; settings: for AUC of viral load (RT-qPCR), fixed time period of 6.5 days, mean (SE) / AUC of viral load (RT-qPCR), fixed time period of 6.5 days, reduction in mean vs placebo: fixed 6.5 days
# Method: Subjects were screened outside the RSV season for eligibility, including measurement of RSV-A Memphis-37b-specific neutralizing antibody titer, ≤90 days before virus challenge. Eligible subjects were admitted to the quarantine unit on day −2 or day −1 and were inoculated intranasally on day 0 with the challenge virus, RSV-A Memphis-37b (4 log10 PFU/ml, given as one 0.4-ml installation per naris), as previously described ([26]). Nasal wash sampling every 12 h for confirmation of RSV infection by qualitative integrated cycler PCR ([12], [19]) began on the morning of day 2. Treatment began 12 h (±1 h) after collection of a nasal wash sample confirming RSV infection or on the evening of day 5 if RSV infection remained unconfirmed by the morning of day 5.
# The study comprised two consecutive cohorts. […] Subjects were discharged on day 12 if nasopharyngeal swab samples tested negative by RSV rapid antigen assay (QuickVue RSV test; Quidel, San Diego, CA, USA). If such tests were positive or if a subject remained symptomatic, quarantine was extended to allow further observation. All subjects were evaluated on day 28 (±3 days).
# (§1) Twice-daily collection of nasal wash samples allowed measurement of viral load via RT-qPCR and quantitative culture. RT-qPCR results were reported as PFUe/ml when the standard curve included in each assay contained a known infectious amount (PFU) of RSV, as described previously ([30]). Subjects reported the occurrence and severity of symptoms three times daily using a 10-item subject symptom diary card as previously reported ([12]) (see Supplemental Methods). Throughout the quarantine period, used tissues were collected and weighed daily, and total nasal mucus weight was recorded. PK assessments were based on venous blood samples. Safety assessments included measurement of vital signs, standard 12-lead ECG recordings, spirometry, a complete physical examination, and a respiratory-directed physical examination. AEs were monitored daily, coded according to the Medical Dictionary for Regulatory Activities Version 20.0, and graded according to the National Cancer Institute Common Terminology Criteria for Adverse Events Version 4.0 (see Supplemental Methods for further details).
# The primary efficacy endpoint was AUC for RSV viral load, as measured by RT-qPCR, in nasal wash samples taken twice daily from just before the first dose until discharge (day 12). Viral load data were provided as log10 PFUe/ml; AUC (log10 PFUe/ml · h) was calculated using the trapezoid rule. Secondary efficacy endpoints related to viral load were AUC of RSV viral load, as assessed by quantitative culture, and the following measures, which were each assessed using both RT-qPCR and quantitative culture: peak viral load, time to peak viral load, and time to <1 log10 (for RT-qPCR) or undetectable (for quantitative culture) viral load (considered to occur at the first confirmed undetectable assessment after which no further virus was detected). Secondary efficacy endpoints related to clinical symptoms included AUC total symptom score; peak total symptom score; time to peak total symptom score; and the total weight of nasal mucus produced. Other secondary outcomes were safety, PK, and sequence detection of viral variants (see Supplemental Methods).
# The primary efficacy analysis population (the ITT-I analysis set) comprised all randomized subjects who received challenge virus and at least one dose of study drug and met the criterion for laboratory-confirmed RSV infection (presence of detectable RSV). Sensitivity analyses were based on a subset of the ITT-I population who had first detectable RSV infection prior to study drug administration (the ITT-A analysis set) and a fixed time period of 6.5 days (comprising data for all subjects for 6.5 days of evaluation after the first dose, regardless of the staggered commencement of dosing). […]
# [1] = RSV human challenge study: plasma pharmacokinetics; assay type: in vivo; settings: for half-life / Tmax / concentration at 12 h / Cmax / AUC(0-t): human; for concentration at 12 h: 12 hours post-dose, read-out: Mean Cmin (SD); for Cmax: read-out: Mean Cmax (SD); for AUC(0-t): read-out: Geometric mean (CV) AUC0–12h
# Method: as §1, with “RT-qPCR results were reported as PFUe/ml when the standard curve included in each assay contained a known infectious amount (PFU) of RSV, as described previously ([30]).” left out
# The safety analysis set comprised all subjects who received challenge virus; the PK analysis set comprised all subjects who received the challenge virus and provided at least one postdose PK result.
# PK parameters were derived by noncompartmental analysis using Phoenix WinNonlin version 6.4.1. Statistical analyses were performed using SAS software version 9.4 or later. […]
# Outcomes. Safety outcomes included the occurrence of AEs. PK outcomes included the maximum plasma concentration, the minimum plasma concentration, the time to maximum plasma concentration, and the area under the plasma concentration-time curve with a dosing interval, calculated by the linear trapezoidal rule.
# [2] = 200 mg, ITT-A, fixed time period of 6.5 days
# [3] = 350 mg, ITT-A, fixed time period of 6.5 days
smiles,measurement,setting,value
NCc1ccc2c(c1)nc(CN1C(=O)C3(CC3)c3ccc(F)cc31)n2CCCC(F)(F)F [RV521],"AUC of viral load (RT-qPCR), mean (SE)","RSV-A Memphis-37b; 200 mg, ITT-A",236.81 (37.63) hours x log 10 PFUe/mL
same,"AUC of viral load (RT-qPCR), reduction in mean vs placebo","RSV-A Memphis-37b; 200 mg, ITT-A",59.74%
same,"Peak viral load (RT-qPCR), mean (SE)","RSV-A Memphis-37b; 200 mg, ITT-A",3.63 (0.26) log10 PFUe/mL
same,"Time to <1 log10 viral load (RT-qPCR), median (Q1, Q3)","RSV-A Memphis-37b; 200 mg, ITT-A","3.0 (3.0, 6.0) days"
same,"Time to peak viral load (RT-qPCR), mean (SE)","RSV-A Memphis-37b; 200 mg, ITT-A",0.94 (0.11) days
same,"AUC of viral load (RT-qPCR), mean (SE)",RSV-A Memphis-37b; [2],234.29 (37.07) log10 PFUe/mL x hours
same,"AUC of viral load (RT-qPCR), reduction in mean vs placebo",RSV-A Memphis-37b; [2],–276.21 log10 PFUe/mL x hours
same,"AUC of viral load (RT-qPCR), mean (SE)","RSV-A Memphis-37b; 200 mg, ITT-I",224.35 log10 PFUe/ml · h and 224.35 (37.60) log10 PFUe/ml · h
same,"AUC of viral load (RT-qPCR), reduction in mean vs that of placebo","RSV-A Memphis-37b; 200 mg, ITT-I",55.25%
same,"AUC of viral load (RT-qPCR, unlogged), mean (SE)","RSV-A Memphis-37b; 200 mg, ITT-I","1,087,294.53 (604,070.11) PFUe/ml · h"
same,"AUC of viral load (RT-qPCR, unlogged), reduction in mean vs that of placebo","RSV-A Memphis-37b; 200 mg, ITT-I",99.10%
same,"Peak viral load (RT-qPCR), mean (SE)","RSV-A Memphis-37b; 200 mg, ITT-I",3.47 log10 PFUe/ml and 3.47 (0.30) log10 PFUe/ml
same,"Time to <1 log10 viral load (RT-qPCR), median (Q1, Q3)","RSV-A Memphis-37b; 200 mg, ITT-I","3.0 days and 3.0 (3.0, 6.0) (n = 17) days"
same,"Time to peak viral load (RT-qPCR), mean (SE)","RSV-A Memphis-37b; 200 mg, ITT-I",0.95 days and 0.95 (0.11) days
same,"Mean viral load at time of peak viral load in placebo arm (day 3; RT-qPCR), mean (SE)","RSV-A Memphis-37b; 200 mg, ITT-I",1.35 (0.36) log10 PFUe/ml
same,"AUC of viral load (RT-qPCR), fixed time period of 6.5 days, mean (SE)","RSV-A Memphis-37b; 200 mg, ITT-I",221.98 (37.05) log10 PFUe/ml · h
same,"AUC of viral load (RT-qPCR), fixed time period of 6.5 days, reduction in mean vs placebo","RSV-A Memphis-37b; 200 mg, ITT-I",49.08%
same,"AUC of viral load (RT-qPCR), mean (SE)","RSV-A Memphis-37b; 350 mg, ITT-A",210.61 (29.76) hours x log 10 PFUe/mL
same,"AUC of viral load (RT-qPCR), reduction in mean vs placebo","RSV-A Memphis-37b; 350 mg, ITT-A",64.19%
same,"Peak viral load (RT-qPCR), mean (SE)","RSV-A Memphis-37b; 350 mg, ITT-A",3.58 (0.40) log10 PFUe/mL
same,"Time to <1 log10 viral load (RT-qPCR), median (Q1, Q3)","RSV-A Memphis-37b; 350 mg, ITT-A","3.5 (3.0, 4.0) days"
same,"Time to peak viral load (RT-qPCR), mean (SE)","RSV-A Memphis-37b; 350 mg, ITT-A",1.65 (0.39) days
same,"AUC of viral load (RT-qPCR), mean (SE)",RSV-A Memphis-37b; [3],207.56 (28.74) log10 PFUe/mL x hours
same,"AUC of viral load (RT-qPCR), reduction in mean vs placebo",RSV-A Memphis-37b; [3],–302.95 log10 PFUe/mL x hours
same,"AUC of viral load (RT-qPCR), mean (SE)","RSV-A Memphis-37b; 350 mg, ITT-I",185.26 log10 PFUe/ml · h and 185.26 (31.17) log10 PFUe/ml · h
same,"AUC of viral load (RT-qPCR), reduction in mean vs that of placebo","RSV-A Memphis-37b; 350 mg, ITT-I",63.05%
same,"AUC of viral load (RT-qPCR, unlogged), mean (SE)","RSV-A Memphis-37b; 350 mg, ITT-I","1,356,521.31 (1,117,131.13) PFUe/ml · h"
same,"AUC of viral load (RT-qPCR, unlogged), reduction in mean vs that of placebo","RSV-A Memphis-37b; 350 mg, ITT-I",98.87%
same,"Peak viral load (RT-qPCR), mean (SE)","RSV-A Memphis-37b; 350 mg, ITT-I",3.17 log10 PFUe/ml and 3.17 (0.45) log10 PFUe/ml
same,"Time to <1 log10 viral load (RT-qPCR), median (Q1, Q3)","RSV-A Memphis-37b; 350 mg, ITT-I","3.5 days and 3.5 (3.0, 4.0) (n = 13) days"
same,"Time to peak viral load (RT-qPCR), mean (SE)","RSV-A Memphis-37b; 350 mg, ITT-I",1.63 days and 1.63 (0.34) days
same,"Mean viral load at time of peak viral load in placebo arm (day 3; RT-qPCR), mean (SE)","RSV-A Memphis-37b; 350 mg, ITT-I",0.80 (1.07) log10 PFUe/ml
same,"AUC of viral load (RT-qPCR), fixed time period of 6.5 days, mean (SE)","RSV-A Memphis-37b; 350 mg, ITT-I",182.59 (30.29) log10 PFUe/ml · h
same,"AUC of viral load (RT-qPCR), fixed time period of 6.5 days, reduction in mean vs placebo","RSV-A Memphis-37b; 350 mg, ITT-I",58.12%
same,Time to steady-state plasma levels after the first dose,[1]; 200 mg and 350 mg,≤ 24 h
same,Subjects achieving target trough levels (3× protein-adjusted in vitro EC90),"[1]; 200 mg, after the first dose",50%
same,Subjects achieving target trough levels (3× protein-adjusted in vitro EC90),"[1]; 200 mg, after the second dose",73%
same,Subjects with trough levels in excess of the target (3× protein-adjusted in vitro EC90),"[1]; 350 mg, after the first dose",all subjects
same,Increase of systemic exposure with dose,"[1]; dose 1 and dose 10, 200 mg vs 350 mg",greater than dose-proportional
same,half-life,"[1]; in vivo, 200 mg and 350 mg, read-out: Elimination half-life (converted)",~6 h
same,Tmax,"[1]; plasma, oral, 200 mg and 350 mg, postdose, read-out: Median time to maximum plasma concentration",5 to 6 h
same,concentration at 12 h,"[1]; plasma, oral, 200 mg, dose 1",0.0226 µg/mL
same,Cmax,"[1]; plasma, oral, 200 mg, dose 1, plasma",0.0553 µg/mL
same,AUC(0-t),"[1]; plasma, oral, 200 mg, dose 1",0.255 µg·h/mL
same,Tmax,"[1]; plasma, oral, 200 mg, dose 1, read-out: Median Tmax",5.04 h
same,Cmax,"[1]; plasma, oral, 200 mg, dose 10 (twice daily), plasma",0.0949 µg/mL
same,concentration at 12 h,"[1]; plasma, oral, 200 mg, dose 10",0.0394 µg/mL
same,AUC(0-t),"[1]; plasma, oral, 200 mg, dose 10",0.642 µg·h/mL
same,Tmax,"[1]; plasma, oral, 200 mg, dose 10, read-out: Median Tmax",5.06 h
same,concentration at 12 h,"[1]; plasma, oral, 350 mg, dose 1",0.08 µg/mL
same,Cmax,"[1]; plasma, oral, 350 mg, dose 1, plasma",0.169 µg/mL
same,AUC(0-t),"[1]; plasma, oral, 350 mg, dose 1",0.953 µg·h/mL
same,Tmax,"[1]; plasma, oral, 350 mg, dose 1, read-out: Median Tmax",6 h
same,Cmax,"[1]; plasma, oral, 350 mg, dose 10 (twice daily), plasma",0.294 µg/mL
same,concentration at 12 h,"[1]; plasma, oral, 350 mg, dose 10",0.151 µg/mL
same,AUC(0-t),"[1]; plasma, oral, 350 mg, dose 10",1.9 µg·h/mL
same,Tmax,"[1]; plasma, oral, 350 mg, dose 10, read-out: Median Tmax",5.05 h
same,half-life,"[1]; plasma, oral, 200 mg and 350 mg, read-out: Terminal half-life",8.54 to 9.35 h
